The values that follow come from US10233201B2, “Class of HDAC inhibitors expands the renal progenitor cells population and improves the rate of recovery from acute kidney injury” (University of Pittsburgh—Of the Commonwealth System of …, priority 2012, dated 2019).

Experiment [1] deals with renal progenitor cells (lhx1a expression). The experiment can be described thus: In situ hybridization for lhx1a expression in 10-somite embryos (renal progenitor cell expansion). For lhx1a expansion class, 800 nM: key: effective (+); partially effective (+/−); ineffective (−); Analogs that killed all embryos at a given concentration before reaching 10 somites are listed as XX. Conditions: for lhx1a expansion class, 800 nM: 800 nM from 2 hpf. The format is in vivo. Put shortly: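 Zebrafish embryos treated with compound, then colorimetric whole-mount in situ hybridization for lhx1a mRNA at 10-somite stage (hybridization 65 °C). Percent embryos with expanded kidney field counted manually; EC50 read as the 50% point of the plotted curve.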

The subject of the next experiment is renal progenitor cells. Nature of the experiment: Tg(lhx1a:EGFP) reporter: renal progenitor cell counting. The format is in vivo, zebrafish. The protocol:
Tg(lhx1a:EGFP)^pt303 embryos were treated with 3 μM PTBA and then fixed in 4% paraformaldehyde in PBS for 8 hours at 4° C. Embryos were washed in PBS containing 0.1% TWEEN 20 (PBT) and incubated in 1 μg/ml DAPI in PBT for 30 minutes at room temperature. Embryos were flat-mounted on glass slides with Cytoseal 60 and imaged with either a Leica M205 FA epifluorescent microscope or an Olympus FluoView 1000 confocal microscope. Confocal projections contained stacks of six 3 μm images. A predefined box was positioned at the most posterior region of the notochord and included the most lateral GFP-positive cell in a kidney field. The cells that were positive for both GFP and DAPI within this box were counted manually with the aid of ImageJ. Variances of the control and PTBA-treated groups were compared by F test and found to be unequal. Therefore, a two-tailed t test with unequal variance was used to determine significance (α=0.05).
For all second-generation compounds, the cad17:EGFP transgene is used as the primary readout to assay for expansion of kidney field (FIG. 35). PTBA analogues that expand cad17:EGFP expression are subjected to a secondary screen. […] Such compounds are assessed in target efficacy and toxicity assays.

The test system of experiment [2] is myod1 (somites), fli1a (vasculature), ntla (notochord). The experiment can be described thus: In situ hybridization for mesodermal markers myod1, fli1a, ntla in 10-somite embryos. The format is in vivo, zebrafish. The protocol:
PTBA was synthesized as described below. Hydroxyurea and aphidicolin were obtained from Sigma-Aldrich.
In situ hybridization and immunocytochemistry: In situ hybridization was performed as previously described with some modifications. 142 Hybridization temperature was 65° C. Embryos were blocked in 2% blocking reagent (Roche) with 5% sheep serum in MAB (100 mM maleic acid and 150 mM NaCl [pH 7.5]). Whole-mount immunocytochemistry with 1:25 mouse anti-α6F antibody (Developmental Studies Hybridoma Bank) and 1:100 Cy3 secondary antibody (Jackson ImmunoResearch) was performed as described previously. 108 Embryos were embedded in JB-4 for sectioning per the manufacturer's instructions (Polysciences), sectioned at 5 μm, and mounted with Cytoseal 60 (Richard-Allan Scientific).

Experiment [3] deals with human HDACs (HeLa cell nuclear extract). Nature of the experiment: Fluorescence histone deacetylation assay with HeLa cell nuclear extract. The format is biochemical. The protocol:
To evaluate this in vitro, the deacetylation of a fluorescent peptide substrate was measured in the presence of human HDACs.
In vitro HDAC activity assays were performed using a fluorescence HDAC assay kit (Active Motif) according to the manufacturer's instructions. For maintaining compound solubility at 5 mM, the final DMSO concentration in all assay wells was increased to 5%. Fluorescence was detected using an M5 Plate Reader ([…])

Experiment [4] concerns Acetylated Histone H3 K9 (Ac-H3 K9). Nature of the experiment: Renal histone H3 K9 acetylation after single injection in CD1 mice. The format is in vivo, mouse. As for the experimental part: PTBA analogues are soluble in 1% DMSO/water, are administered subcutaneously as a single injection in adult CD1 mice, and kidneys harvested at 12, 24 and 48 hours to evaluate histone acetylation (which should increase with HDACi). PTBA analogs are used at a dose range determined from comparative dose efficacy with m4PTB in the secondary zebrafish screen. Acetylated Histone H3 K9 (Ac-H3 K9) is evaluated, as this is most easily detected by Western blot in nuclear extracts from mouse renal tissues. Preliminary studies compared the effect of Trichostatin A (an established, but toxic HDACi) at an effective dose in the zebrafish screen ([…]) with an equivalent dose of m4PTB (0.8 mM), and then X2 and X4 dose increments (molar concentration in vivo based on estimate uniform distribution relative to body mass of water). 3.4 mg/kg (4×) m4PTB induced maximal expression of Ac-H3 K9 after 24 hours (FIG. 36). This effect was increased compared with TSA or lower doses of m4PTB, so we elected to use this dose of m4PTB (3.4 mg/kg) for AKI studies in mice. […]
We evaluated efficacy and effective dosage of a second-generation PTBA analogue, m4PTB, by determining the kinetics of renal Histone H3 K9 acetylation (H3K9Ac) following a single SC injection. […]

Take `O=C(O)CCCSc1ccccc1` [PTBA, 4-(phenylthio)butanoic acid]: the “lhx1a expansion class, 800 nM” value in experiment [1] is given as “+/−”. Moreover, the “embryos with expanded lhx1a expression” value is given as 97% in experiment [1] (0.5% DMSO at 5 hpf, 3 μM PTBA at 8 hpf) and 19% in experiment [1] (injected with 200 pg DN-RARα mRNA, then 3 μM PTBA at 5 hpf). Moreover, the responders at 0.8 µM in experiment [1] (Danio rerio, 800 nM, read-out: embryos with expanded lhx1a expression (% expansion)) was less than 25%. The “increase in the number of renal progenitor cells” value in the experiment with renal progenitor cells (3 μM, 10-somite Tg(lhx1a:EGFP)pt303 embryos) was determined as 2.4 fold. Moreover, the “embryos with unchanged fli1a expression” value in experiment [2] (3 μM) is recorded as 97%. Further, the “embryos with decreased myod1 expression” value in experiment [2] (3 μM PTBA (slightly decreased), 25 μM PBA, 200 nM TSA) amounted to 95%. In addition, the “embryos with increased ntla expression” value in experiment [2] (3 μM PTBA, 25 μM PBA) came out at 88%. In addition, the “HDAC activity, % of the control value” in experiment [3] (5 mM compound, 10 μg HeLa extract) turned out to be 30%. Also, the “reduction of HDAC activity” value in experiment [3] (millimolar concentrations) came out at 70%.
`COC(=O)CCCSc1ccccc1` [UPHD-00025, methyl 4-(phenylsulfanyl) butanoate]: the “lhx1a expansion class, 800 nM” value in experiment [1] was “+/−”. Also, the “effective dose for the renal progenitor assay” value in experiment [1] (zebrafish, in vivo) is reported as roughly 800 nM. In addition, the “lowest dose at which expansion of the renal progenitor cell population starts to be seen” value with renal progenitor cells (lhx1a:EGFP transgene, data not shown) was found to be 600 nM. Further, in experiment [4] (3.4 mg/kg single SC injection), the “persistence of H3K9Ac induction” value was 24 h. In addition, in experiment [4] (single SC injection, after 24 hours), the “dose inducing maximal Ac-H3 K9 expression in kidney” value is on record as 3.4 mg/kg.
